The nature of data set [1]: Phase I study D-84812-Z012, single s.c. injection: pharmacokinetics of teverelix. In kind it is in vivo, human. The settings on record: between the 60 mg and 90 mg doses.
Data set [2] in a line: Phase I study D-84812-Z012, single s.c. injection: safety and tolerability. In kind it is in vivo, human. The following applies: doses of up to 90 mg, 32 healthy male volunteers.
The conditions of data set [3]: compared with degarelix; cited from earlier work.
A short description of data set [4]: Phase I study EP-24332T-A004, repeated s.c. injections: safety and tolerability. In kind it is in vivo, human. The settings on record: 2 s.c. doses of 60 mg or 90 mg at 24 h or 48 h interval. The protocol: In a second Phase I study (EP-24332T-A004), a second injection was administered 24 h or 48 h after the first in order to increase and prolong the initial peak, as well as increase the teverelix level and consequently the number of subjects castrated. As the previous Phase I study had shown 10 mg and 30 mg to be insufficient to provide a long-term suppression, 2 doses of 60 mg or 90 mg (6 subjects per group) or placebo (4 subjects) were administered at a 24 h interval and 2 doses of 90 mg at a 48 h interval. […] No critical safety findings were reported. […] The protocol of the study included 6 subjects who received 90 mg Teverelix TFA on D1; D2; D3.

Where a name gives a salt, the structure may show the parent alone. Non-standard residues stand in square brackets, D forms with d. Residues, ends and D or L forms follow the SMILES beside them. Phe(4-Cl) = N[C@@H](Cc1ccc(Cl)cc1)C(=O)O; dPhe(4-Cl) = N[C@H](Cc1ccc(Cl)cc1)C(=O)O; d2Nal = N[C@H](Cc1ccc2ccccc2c1)C(=O)O; d(hCit) = NC(=O)NCCCC[C@@H](N)C(=O)O; Lys(iPr) = CC(C)NCCCC[C@H](N)C(=O)O; d3Pal = N[C@H](Cc1cccnc1)C(=O)O

Results on 2 compounds are retold here after patent US20200000872A1, “A COMPOSITION COMPRISING AT LEAST ONE GNRH ANTAGONIST” (ANTEV LIMITED, priority 2017, published 2020).

For the compound `CC(=O)N[C@H](Cc1ccc2ccccc2c1)C(=O)N[C@H](Cc1ccc(Cl)cc1)C(=O)N[C@H](Cc1cccnc1)C(=O)N[C@@H](CO)C(=O)N[C@@H](Cc1ccc(O)cc1)C(=O)N[C@H](CCCCNC(N)=O)C(=O)N[C@@H](CC(C)C)C(=O)N[C@@H](CCCCNC(C)C)C(=O)N1CCC[C@H]1C(=O)N[C@H](C)C(N)=O` [Teverelix TFA, teverelix trifluoroacetate] (Ac-[d2Nal][dPhe(4-Cl)][d3Pal]SY[d(hCit)]L[Lys(iPr)]P[dA]-NH2), the dose proportionality entry in data set [1] is reported as “demonstrated”. For the same compound, the tolerability result in data set [2] is “tolerated well”. In data set [3], the “local irritation at the administration site” value was “less local irritation at the administration site than degarelix”.
`CC(=O)N[C@H](Cc1ccc2ccccc2c1)C(=O)N[C@@H](Cc1ccc(Cl)cc1)C(=O)N[C@H](Cc1cccnc1)C(=O)N[C@@H](CO)C(=O)N[C@H](Cc1ccc(O)cc1)C(=O)N[C@H](CCCCNC(N)=O)C(=O)N[C@@H](CC(C)C)C(=O)N[C@@H](CCCCNC(C)C)C(=O)N1CCC[C@H]1C(=O)N[C@H](C)C(N)=O` [teverelix, Ac-D-Nal-D-pClPhe-D-Pal-Ser-Tyr-D-Hci-Leu-Lys(iPr)-Pro-D-Ala-NH2] (Ac-[d2Nal][Phe(4-Cl)][d3Pal]S[dY][d(hCit)]L[Lys(iPr)]P[dA]-NH2): in data set [4], the “local reactions at the injection sites” value is “only mild local indurations” and the tolerability result is “tolerated well”.
